According to publication PMC9145754, “Novel Soloxolone Amides as Potent Anti-Glioblastoma Candidates: Design, Synthesis, In Silico Analysis and Biological Activities In Vitro and In Vivo” (Pharmaceuticals, 2022):

Key:
[1] = system: U87 glioblastoma; test: Subcutaneous U87 glioblastoma xenograft model; type: in vivo, Balb/C nude mice
Method: Given the high antitumor potential of 12 with respect to glioblastoma cells observed in vitro, we further questioned whether the investigated triterpenoid suppresses the growth of glioblastoma in a murine model. To understand this, 12 was intraperitoneally injected as a solution in 10% Tween-80 at a dosage of 20 mg/kg into nude mice bearing subcutaneously implanted human U87 glioblastomas (the experimental setup is presented in Figure 8A). […] Analysis of tumor weights also confirmed the high antitumor activity of 12, which decreased this parameter by 2.1- and 3.4-fold compared to the untreated and vehicle-treated groups, respectively (Figure 8D).
A xenograft model of tumor progression was induced by subcutaneous (s.c.) injection of U87 glioblastoma cells (2 × 10^7 cells/mL) suspended in 0.1 mL of saline buffer with 0.05 mL of Matrigel® Matrix (Corning, NY, USA) into the left flank of Balb/C nude mice. On day 5 after tumor transplantation, the mice were divided into three groups (n = 6 per group): (1) mice without treatment (control); (2) mice that received intraperitoneal (i.p.) injections of 10% Tween-80 (vehicle); and (3) mice that received i.p. injections of 12 in 10% Tween-80 at a dose of 20 mg/kg. The treatment was carried out thrice per week. The total number of injections was seven. During the experiment, the tumor volumes were determined three times a week using caliper measurements and were calculated as V= (D × d^2)/2, where D is the longest diameter of the tumor node and d is the shortest diameter of the tumor node perpendicular to D. The mice were sacrificed on day 21 after tumor transplantation and the tumors and brains were collected for subsequent histological and pharmacological analysis.
For the histological study, the tumor specimens were fixed in 10% neutral-buffered formalin (BioVitrum, St. Petersburg, Russia), dehydrated in ascending ethanols and xylols and embedded in HISTOMIX paraffin (BioVitrum, St. Petersburg, Russia). The paraffin sections (5 μm) were sliced on a Microm HM 355S microtome (Thermo Fisher Scientific, Waltham, MA, USA) and stained with hematoxylin and eosin. Extracellular matrix deposition was determined using Masson’s trichrome staining.
For the immunohistochemical study, the tumor sections (3–4 μm) were deparaffinized and rehydrated. Antigen retrieval was carried out after exposure in a microwave oven at 700 W. The samples were incubated with anti-Ki-67 (ab16667, Abcam, Boston, MA, USA), anti-α-SMA (ab5694, Abcam, USA) or anti-CD31 (ab182981, Abcam, USA) primary antibodies according to the manufacturer’s protocol. Then, the sections were incubated with secondary horseradish peroxidase (HPR)-conjugated antibodies, exposed to the 3,3′-diaminobenzidine (DAB) substrate (Rabbit Specific HRP/DAB (ABC) Detection IHC Kit, ab 64261, Abcam, USA) and stained with Mayer’s hematoxylin.
Morphometric analysis of tumor sections included evaluation of the numerical density (Nv) of mitoses and Ki-67-positive cells in a square unit of tumor tissue—3.2 × 10^6 μm^2 in this case. At least ten random fields from the tumor specimens of six mice in each group (60 testing fields in total) were studied.

[2] = system: brain tumor cells; test: MTT cytotoxicity, values summarised over brain tumor cells; type: cell-based; settings: range over U87, U118, KELLY, Neuro2a; read-out: IC50 against brain malignant cells
Method: (§1) To evaluate the antitumor activity of the synthesized soloxolone amides in brain tumor cells, the cytotoxicity of compounds 4–12, predicted as BBB-permeable (Figure 3), was further analyzed in human glioblastoma U87 and U118 cells, as well as human neuroblastoma KELLY and murine neuroblastoma Neuro2a cells.
(§2) The cells in the exponential growth phase were seeded in quadruplicate in 96-well plates at a density of 1 × 10^4 cells/well for HeLa, U87, U118, KELLY and Neuro2a cells; 1.5 × 10^4 cells/well for HuTu-80 cells; 2 × 10^4 cells/well for B16 cells; and 7 × 10^3 cells/well for hFF3 fibroblasts. Cells were incubated under standard conditions overnight followed by their treatment with the investigated compounds (1–20 µM) for 24 h. Then, 10 µL of MTT solution was added to the cells to a final concentration of 0.5 mg/mL and plates were placed under standard conditions for 3 h followed by an aspiration of MTT-containing medium and a dissolution of formazan crystals with 100 µL of DMSO. The absorbance of each well was read at test and reference wavelengths of 570 and 620 nm, respectively, on a Multiscan RC plate reader (Thermo LabSystems, Helsinki, Finland).

[3] = system: B16 cells; test: MTT cytotoxicity assay, B16; type: cell-based, murine; settings: Mus musculus, 24 h, read-out: IC50, Melanoma, B16
Method: (§3) In the first step of the study, we analyzed the cytotoxicity of novel soloxolone derivatives 1–12 in a panel of tumor cells, including human cervical carcinoma HeLa, human duodenal carcinoma HuTu-80 and murine melanoma B16 cells, as well as human non-transformed hFF3 foreskin fibroblasts. The cells were treated with derivatives for 24 h and cell viability was evaluated by 3-(4,5-dimethylthiazol-2-yl)-2,5-diphenyltetrazolium bromide (MTT) assay. SM was used as the reference compound.
as §2

[4] = system: U118 cells; test: MTT cytotoxicity assay, U118; type: cell-based; settings: Homo sapiens, 24 h, read-out: IC50, Glioblastoma, U118
Method: as §1, §2

[5] = system: U87 cells; test: Autophagy, MDC staining, U87; type: cell-based, human; settings: 24 h
Method: Given that pentacyclic triterpenoids can induce tumor cell death not only by the apoptotic pathway but also by triggering autophagy, we next studied whether 12 stimulated autophagy in glioblastoma cells. For this, U87 and U118 cells were incubated with tryptamide 12 at toxic concentrations (2 or 4 µM) for 24 h followed by cell staining with monodansylcadaverine (MDC), a fluorescent dye specifically labeling autophagosomes. […] Considering that autophagy can be associated not only with cell death but also with cytoprotection, its role in the cytotoxicity of 12 in glioblastoma cells was further studied.
To evaluate the ability of 12 to induce autophagy, U87 and U118 cells were seeded at 2.8 × 10^5 cells/well in 6-well plates and incubated under standard conditions overnight followed by their treatment with 12 in amounts of 2 and 4 μM for 24 h. Then, the cells were collected and washed with PBS as described above and resuspended in 500 µL of PBS containing monodancylcadaverine (MDC) at 50 μM. After incubation for 15 min under standard conditions, the cells were washed with PBS and analyzed by flow cytometry. For each sample, 10,000 events were acquired.

[6] = system: hFF3 foreskin fibroblasts; test: MTT cytotoxicity assay, hFF3 fibroblasts; type: cell-based, human; settings: Homo sapiens, HFF-3, 24 h
Method: as §3, §2

[7] = 20 mg/kg i.p., seven injections
[8] = 20 mg/kg i.p., seven injections, day 21

## CC1(C)C(=O)C(C#N)=C[C@]2(C)C3=CC(=O)[C@@H]4[C@@H]5C[C@@](C)(C(=O)NCCc6c[nH]c7ccccc67)CC[C@]5(C)CC[C@@]4(C)[C@]3(C)CC[C@@H]12 [compound 12]
[1]; [7]
  decrease in tumor weight compared to the untreated group: 2.1 fold
  decrease in tumor weight compared to the vehicle-treated group: 3.4 fold
[1]; [8]
  decrease in tumor volume compared to the control: 3 fold
  decrease in tumor volume compared to the vehicle-treated group: 4.4 fold
[1]; 20 mg/kg i.p., tumor tissue
  decrease in numerical density of Ki-67-positive cells compared to the untreated control group: 3.5 fold
  decrease in numerical density of Ki-67-positive cells compared with vehicle-treated animals: 2.4 fold
  decrease in numerical density of mitotic cells (Nv) compared to the untreated control group: 3.4 fold
  decrease in numerical density of mitotic cells (Nv) compared with vehicle-treated animals: 4 fold
[1]; Masson's trichrome, versus untreated and vehicle-treated mice
  collagen fiber content in tumor tissue: decreased the collagen fiber content
[1]; immunohistochemistry, versus control and vehicle-treated mice
  expression of CD31 and α-SMA in tumor tissue: increased the expression of both CD31 and α-SMA
[2]
  IC50: 1600 to 1900 nM
[3]
  IC50: 1500 ± 200 nM
[4]
  IC50: 1900 ± 200 nM
[5]; 12 at 2 µM
  MDC-positive cells, U87: 19.57%
[5]; 12 at 4 µM
  MDC-positive cells, U87: 31.95%
[6]
  IC50: 1400 ± 200 nM
